Test results taken from patent publication US11078194B2, “Salt form and crystal form serving as FGFR and VEGFR inhibitor compounds, and preparation method therefor” (HARBIN ZHENBAO PHARMACEUTICAL CO., LTD., priority 2017, dated 2021).
Read-outs that look alike come from different tables or passages of the source. Each block holds one compound with its values, some of them ahead of it.

Tests used:
[1] = Solubility test of compounds of formula (I)-(IV) in 4 vehicles (water, SGF, FaSSIF, FeSSIF), HPLC; format: physicochemical; conditions: for solubility at 4 h / solubility at 24 h: thermodynamic from solid; for solubility at 4 h / Solubility (μg/mL)_4 hours: 4 hours stirring; for solubility at 4 h: read-out: Solubility (μg/mL)_4 hours; for solubility at 24 h / Solubility (μg/mL)_24 hours: 24 hours stirring; for solubility at 24 h: read-out: Solubility (μg/mL)_24 hours
Method: About 5 mg of the compound of formula (I) was weighed accurately, and placed in a sample bottle. 10 mL of acetonitrile was added. The mixture was sonicated for 5 minutes, cooled to room temperature, and well mixed. Two control sample solutions were prepared in parallel, and labeled as STD-1 and STD-2, respectively.
The control sample solution STD-1 was serially diluted 1, 5, 10, 100 and 1000 times and labeled as linear solutions L1, L2, L3, L4 and L5.
The solubility of the compound of formula (I) and its salt in 4 vehicles with different pH were tested. About 10 mg of the compounds of formula (I)-(IV) were weighed respectively, then 5.0 mL of different vehicles (water, SGF, FaSSIF, FeSSIF) were added thereto, respectively, and well mixed to obtain suspensions. Magnetic stir bars were added into the suspensions, and the suspensions were placed on a magnetic stirrer for stirring. After stirring for 2 hours, 4 hours, and 24 hours, the samples were collected and centrifuged. The residual solid samples in the lower layer were detected by XRPD. The concentrations of the samples in the upper layer were determined by HPLC, and the pH value of the samples were also detected.
(§1) FaSSIF: (1) 0.042 g of sodium hydroxide, 0.3438 g of sodium dihydrogen phosphate and 0.6186 g of sodium chloride were weighed, and 90 mL of purified water was added and well mixed. The pH value of the obtained solution were adjusted to 6.5 with 1 N hydrochloric acid or 1 N sodium hydroxide, and the solution were diluted with purified water to a final volume of 100 mL. (2) 50 mL of the above buffer solution was taken, followed by addition of 0.224 g of commercially available FaSSIF/FeSSIF/FaSSGF powder (Biorelevant.com). The buffer solution was stirred until dissolved, and diluted with purified water to a final volume of 100 mL. The buffer solution was placed at room temperature.
as §1, with “FeSSIF:” for “FaSSIF:”, “0.404” for “0.042”, “0.865” for “0.3438”, “glacial acetic acid, 1.1874” for “sodium dihydrogen phosphate and 0.6186”, “5.0” for “6.5”, “1.12” for “0.224”
FaSSGF (SGF): (1) 0.2 g of sodium chloride was added to 90 mL of purified water and mixed well. The pH value thereof was adjusted to 1.8 with 1 N hydrochloric acid and the solution diluted with purified water to a final volume of 100 mL. The obtained solution was allowed to stand at room temperature.

[2] = Solid stability test of crystal form G, crystal form I and crystal form J (HPLC content, total impurities, XRPD, appearance); format: physicochemical
Method: About 10 mg of crystal form G, crystal form I, or crystal form J were weighed accurately, and placed on the bottom of a 40 mL glass sample bottle and spread into a thin layer. For an open sample, the bottle mouth thereof was sealed with aluminum foil poked with pinholes to ensure that the sample can fully contact with the ambient air. For a sealed sample, the bottle mouth thereof was sealed with a bottle cap, and wrapped with a sealing film. Two duplicate samples were weighed at each time point of each condition in parallel, and an appropriate amount of sample (not weighed) was taken additionally for XRPD detection. The prepared samples were placed under each condition and were sampled and analyzed when the time point was arrived. On 0th day, 5 control samples were weighed in parallel and stored in a refrigerator at −20° C. until analysis. The samples subjected to light irradiation were prepared by the same method, and placed on the bottom of a 40 mL glass sample bottle. The glass bottle was left open and placed in the upright position in a light irradiation box. In addition, two samples in an appropriate amount were taken as samples in dark, and the glass bottles containing the same were left open, put in the upright position, and wrapped with tin foil, and irradiated with a total luminance of 1.2×10^6Lux.hr and a near ultraviolet power of 200 w.hr/m^2. After irradiation, the samples was stored in the refrigerator at −20° C. for analysis.
The compounds were placed under the following conditions and sampled at different time points to detect the physical properties, and the content and total impurities were analyzed by HPLC.

[3] = FaSSIF, pH 6.5, fassif, vehicle FaSSIF
[4] = FeSSIF, pH 5, fessif, vehicle FeSSIF
[5] = pH of sample in FaSSIF (vehicle pH 6.62)
[6] = pH of sample in FeSSIF (vehicle pH 4.59)
[7] = pH of sample in H2O (vehicle pH 8.23)
[8] = pH of sample in SGF (vehicle pH 1.57)
[9] = SGF (FaSSGF), pH 1.8, simulated gastric fluid, vehicle SGF
[10] = water, pH 8.23, water, vehicle H2O
[11] = Accelerated test (40° C./relative humidity 75%, open), 1st month
[12] = Accelerated test (40° C./relative humidity 75%, open), 2nd month
[13] = Accelerated test (40° C./relative humidity 75%, open), 3rd month
[14] = Accelerated test (40° C./relative humidity 75%, open), 10th day
[15] = Accelerated test (60° C./relative humidity 75%, open), 1st month
[16] = Accelerated test (60° C./relative humidity 75%, open), 2nd month
[17] = Accelerated test (60° C./relative humidity 75%, open), 3rd month
[18] = Accelerated test (60° C./relative humidity 75%, open), 10th day
[19] = High humidity (Room temperature/relative humidity 92.5%, open), 5th day
[20] = High humidity (Room temperature/relative humidity 92.5%, open), 10th day
[21] = High temperature (60° C., open), 5th day
[22] = High temperature (60° C., open), 10th day
[23] = Light irradiation (1.2 × 10^6 Lux·hr, near ultraviolet 200 w·hr/m^2, open), irradiated sample
[24] = Light irradiation test, Dark sample

- solubility at 4 h [1, 3]: 781 µg/mL
- solubility at 4 h [1, 4]: 1950 µg/mL
- solubility at 24 h [1, 4]: 1730 µg/mL
- solubility in the three biological vehicle ([1]; SGF, FaSSIF, FeSSIF, conclusion in words): good solubility
- pH (4 hours) [1, 5]: 6.58
- pH (24 hours) [1, 5]: 6.57
- pH (4 hours) [1, 6]: 5.01
- pH (24 hours) [1, 6]: 5.01
- pH (4 hours) [1, 7]: 8.33
- pH (24 hours) [1, 7]: 7.97
- pH (4 hours) [1, 8]: 2.10
- pH (24 hours) [1, 8]: 2.06
- Solubility (μg/mL)_24 hours ([1]; vehicle FaSSIF): 611.3 µg/mL
- Solubility (μg/mL)_4 hours ([1]; vehicle H2O): 5.8 µg/mL
- Solubility (μg/mL)_24 hours ([1]; vehicle H2O): <LOQ
- Solubility (μg/mL)_4 hours ([1]; vehicle SGF): 1971.3 µg/mL
- Solubility (μg/mL)_24 hours ([1]; vehicle SGF): 1825.6 µg/mL
- solubility in the aqueous phase / water ([1]; water, conclusion in words, listed as free base): extremely difficult to dissolve
Compound: C[C@@H](Oc1ccc2[nH]nc(/C=C(\F)c3ccc(CNC4CCOCC4)nc3)c2c1)c1c(Cl)cncc1Cl [compound of formula (I)]

- solubility at 4 h [1, 3]: 910 µg/mL
- solubility at 24 h [1, 3]: 942 µg/mL
- solubility at 4 h [1, 4]: 2370 µg/mL
- solubility at 24 h [1, 4]: 2230 µg/mL
- solubility at 4 h [1, 9]: 2420 µg/mL
- solubility at 24 h [1, 9]: 16.8 µg/mL
- pH (4 hours) [1, 5]: 6.43
- pH (24 hours) [1, 5]: 6.33
- pH (4 hours) [1, 6]: 4.96
- pH (24 hours) [1, 6]: 4.97
- pH (4 hours) [1, 7]: 5.60
- pH (24 hours) [1, 7]: 5.47
- pH (4 hours) [1, 8]: 2.09
- pH (24 hours) [1, 8]: 2.08
- solubility at 4 h [1, 10]: 99.5 µg/mL
- solubility at 24 h [1, 10]: 184 µg/mL
Compound: C[C@@H](Oc1ccc2[nH]nc(/C=C(\F)c3ccc(CNC4CCOCC4)nc3)c2c1)c1c(Cl)cncc1Cl.O=C(O)CC(O)(CC(=O)O)C(=O)O [compound of formula (III)]

- Appearance ([2]; 0th day): Earth yellow
- Content (%) ([2]; 0th day): 100%
- Crystal form (XRPD) ([2]; 0th day): form G
- Total impurities (%) ([2]; 0th day): 0.11%
- Appearance [2, 11]: Earth yellow
- Content (%) [2, 11]: 102.45%
- Crystal form (XRPD) [2, 11]: form G
- Total impurities (%) [2, 11]: 0.16%
- Appearance [2, 12]: Earth yellow
- Content (%) [2, 12]: 101.07%
- Crystal form (XRPD) [2, 12]: form G
- Total impurities (%) [2, 12]: 0.17%
- Appearance [2, 13]: Earth yellow
- Content (%) [2, 13]: 98.81%
- Crystal form (XRPD) [2, 13]: form G
- Total impurities (%) [2, 13]: 0.18%
- Appearance [2, 14]: Earth yellow
- Content (%) [2, 14]: 99.97%
- Crystal form (XRPD) [2, 14]: form G
- Total impurities (%) [2, 14]: 0.11%
- Appearance [2, 15]: Earth yellow
- Content (%) [2, 15]: 101.51%
- Crystal form (XRPD) [2, 15]: form G
- Total impurities (%) [2, 15]: 0.17%
- Appearance [2, 16]: Earth yellow
- Content (%) [2, 16]: 99.86%
- Crystal form (XRPD) [2, 16]: form G
- Total impurities (%) [2, 16]: 0.18%
- Appearance [2, 17]: Earth yellow
- Content (%) [2, 17]: 100.21%
- Crystal form (XRPD) [2, 17]: form G
- Total impurities (%) [2, 17]: 0.19%
- Appearance [2, 18]: Earth yellow
- Content (%) [2, 18]: 98.38%
- Crystal form (XRPD) [2, 18]: form G
- Total impurities (%) [2, 18]: 0.15%
- Appearance [2, 19]: Earth yellow
- Content (%) [2, 19]: 100.82%
- Crystal form (XRPD) [2, 19]: form G
- Total impurities (%) [2, 19]: 0.11%
- Appearance [2, 20]: Earth yellow
- Content (%) [2, 20]: 98.79%
- Crystal form (XRPD) [2, 20]: form G
- Total impurities (%) [2, 20]: 0.11%
- Appearance [2, 21]: Earth yellow
- Content (%) [2, 21]: 102.02%
- Crystal form (XRPD) [2, 21]: form G
- Total impurities (%) [2, 21]: 0.16%
- Appearance [2, 22]: Earth yellow
- Content (%) [2, 22]: 100.14%
- Crystal form (XRPD) [2, 22]: form G
- Total impurities (%) [2, 22]: 0.16%
- Appearance [2, 23]: Earth yellow
- Content (%) [2, 23]: 102.93%
- Crystal form (XRPD) [2, 23]: form G
- Total impurities (%) [2, 23]: 0.37%
- Appearance [2, 24]: Earth yellow
- Content (%) [2, 24]: 101.69%
- Crystal form (XRPD) [2, 24]: form G
- Total impurities (%) [2, 24]: 0.11%
- thermal stability and stability under accelerated conditions ([2]; conclusion of influencing factors and accelerated tests): excellent
- stability under dark conditions ([2]; dark): good stability
- impurities generated under light irradiation conditions ([2]; light irradiation): slight impurities
Compound: C[C@@H](Oc1ccc2[nH]nc(/C=C(\F)c3ccc(CNC4CCOCC4)nc3)c2c1)c1c(Cl)cncc1Cl [crystal form G]

- pH (4 hours) [1, 5]: 6.25
- pH (24 hours) [1, 5]: 6.22
- pH (4 hours) [1, 6]: 4.90
- pH (24 hours) [1, 6]: 4.91
- pH (4 hours) [1, 7]: 2.68
- pH (24 hours) [1, 7]: 2.68
- pH (4 hours) [1, 8]: 1.86
- pH (24 hours) [1, 8]: 1.86
- Solubility (μg/mL)_4 hours ([1]; vehicle FaSSIF): 949.7 µg/mL
- Solubility (μg/mL)_24 hours ([1]; vehicle FaSSIF): 281.6 µg/mL
- Solubility (μg/mL)_4 hours ([1]; vehicle FeSSIF): 2010.0 µg/mL
- Solubility (μg/mL)_24 hours ([1]; vehicle FeSSIF): 1831.5 µg/mL
- Solubility (μg/mL)_4 hours ([1]; vehicle H2O): 1576.9 µg/mL
- Solubility (μg/mL)_4 hours ([1]; vehicle SGF): 106.3 µg/mL
- Solubility (μg/mL)_24 hours ([1]; vehicle SGF): 45.4 µg/mL
- solubility at 24 h [1, 10]: 1540 µg/mL
- solubility in the aqueous phase / water ([1]; water, conclusion in words, listed as hydrochloride): highest solubility
Compound: C[C@@H](Oc1ccc2[nH]nc(/C=C(\F)c3ccc(CNC4CCOCC4)nc3)c2c1)c1c(Cl)cncc1Cl [compound of formula (II)]

- solubility at 4 h [1, 3]: 1130 µg/mL
- solubility at 24 h [1, 3]: 824 µg/mL
- solubility at 4 h [1, 4]: 2410 µg/mL
- solubility at 24 h [1, 4]: 2280 µg/mL
- solubility at 4 h [1, 9]: 2470 µg/mL
- solubility at 24 h [1, 9]: 43.3 µg/mL
- pH (4 hours) [1, 5]: 6.26
- pH (24 hours) [1, 5]: 6.27
- pH (4 hours) [1, 6]: 4.95
- pH (24 hours) [1, 6]: 4.95
- pH (4 hours) [1, 7]: 6.93
- pH (24 hours) [1, 7]: 6.46
- pH (4 hours) [1, 8]: 2.09
- pH (24 hours) [1, 8]: 2.09
- solubility at 4 h [1, 10]: 7.4 µg/mL
- solubility at 24 h [1, 10]: 19.3 µg/mL
Compound: C[C@@H](Oc1ccc2[nH]nc(/C=C(\F)c3ccc(CNC4CCOCC4)nc3)c2c1)c1c(Cl)cncc1Cl.O=C(O)C[C@H](O)C(=O)O [compound of formula (IV)]
